Tests used:
[1] = molar heat capacity at constant pressure; settings: 101.33 kPa, Liquid, Large sample (1 g) DSC
[2] = 101.33 kPa, Liquid; for speed of sound: Pulse-echo method; for mass density: Pycnometric method

CCCCCCCCCBr [1-bromononane]
[1]
Settings	molar heat capacity at constant pressure [J/K/mol]
298.15 K	308.3
303.15 K	310.56
308.15 K	312.82
313.15 K	315.1
318.15 K	317.36
323.15 K	319.61
328.15 K	321.87
333.15 K	324.15
338.15 K	326.41
343.15 K	328.67
348.15 K	330.92
353.15 K	333.2
358.15 K	335.46
363.15 K	337.72
368.15 K	339.98
373.15 K	342.26
378.15 K	344.51
383.15 K	346.77
388.15 K	349.03
393.15 K	351.31
398.15 K	353.57
403.15 K	355.82
408.15 K	358.08
413.15 K	360.36
418.15 K	362.62
423.15 K	364.88

CCCCCCCCCCCCBr [1-bromododecane]
[1]
Settings	molar heat capacity at constant pressure [J/K/mol]
298.15 K	399.29
303.15 K	402.38
308.15 K	405.47
313.15 K	408.56
318.15 K	411.65
323.15 K	414.75
328.15 K	417.84
333.15 K	420.93
338.15 K	424.02
343.15 K	427.11
348.15 K	430.2
353.15 K	433.26
358.15 K	436.35
363.15 K	439.44
368.15 K	442.53
373.15 K	445.62
378.15 K	448.72
383.15 K	451.81
388.15 K	454.9
393.15 K	457.99
398.15 K	461.08
403.15 K	464.14
408.15 K	467.23
413.15 K	470.32
418.15 K	473.41
423.15 K	476.5

CCCCCCCCCCCBr [1-bromoundecane]
[1]
Settings	molar heat capacity at constant pressure [J/K/mol]
298.15 K	373.22
303.15 K	375.72
308.15 K	378.21
313.15 K	380.7
318.15 K	383.19
323.15 K	385.69
328.15 K	388.18
333.15 K	390.67
338.15 K	393.17
343.15 K	395.66
348.15 K	398.15
353.15 K	400.62
358.15 K	403.12
363.15 K	405.61
368.15 K	408.1
373.15 K	410.6
378.15 K	413.09
383.15 K	415.58
388.15 K	418.08
393.15 K	420.57
398.15 K	423.06
403.15 K	425.56
408.15 K	428.02
413.15 K	430.52
418.15 K	433.01
423.15 K	435.5

CCCCCCBr [1-bromohexane]
[1]
Settings	molar heat capacity at constant pressure [J/K/mol]
298.15 K	219.66
303.15 K	221.28
308.15 K	222.9
313.15 K	224.51
318.15 K	226.13
323.15 K	227.77
328.15 K	229.38
333.15 K	231
338.15 K	232.62
343.15 K	234.24
348.15 K	235.87
353.15 K	237.49
358.15 K	239.11
363.15 K	240.72
368.15 K	242.34
373.15 K	243.96
378.15 K	245.59
383.15 K	247.21
388.15 K	248.83
393.15 K	250.45
398.15 K	252.06
403.15 K	253.68
408.15 K	255.32
413.15 K	256.93
418.15 K	258.55
423.15 K	260.17

CCCCCCCCCCBr [1-bromodecane]
[1]
Settings	molar heat capacity at constant pressure [J/K/mol]
298.15 K	334.38
303.15 K	336.85
308.15 K	339.35
313.15 K	341.85
318.15 K	344.35
323.15 K	346.85
328.15 K	349.35
333.15 K	351.85
338.15 K	354.33
343.15 K	356.83
348.15 K	359.33
353.15 K	361.82
358.15 K	364.32
363.15 K	366.82
368.15 K	369.32
373.15 K	371.8
378.15 K	374.3
383.15 K	376.8
388.15 K	379.3
393.15 K	381.8
398.15 K	384.3
403.15 K	386.8
408.15 K	389.27
413.15 K	391.77
418.15 K	394.27
423.15 K	396.77

CCCCCCCCBr [1-bromooctane]
[1]
Settings	molar heat capacity at constant pressure [J/K/mol]
298.15 K	272.15
303.15 K	274.7
308.15 K	277.25
313.15 K	279.8
318.15 K	282.35
323.15 K	284.92
328.15 K	287.47
333.15 K	290.02
338.15 K	292.56
343.15 K	295.11
348.15 K	297.66
353.15 K	300.23
358.15 K	302.78
363.15 K	305.33
368.15 K	307.88
373.15 K	310.43
378.15 K	313
383.15 K	315.55
388.15 K	318.1
393.15 K	320.64
398.15 K	323.19
403.15 K	325.76
408.15 K	328.31
413.15 K	330.86
418.15 K	333.41
423.15 K	335.96

CCCCCCCBr [1-bromoheptane]
[1]
Settings	molar heat capacity at constant pressure [J/K/mol]
298.15 K	249.39
303.15 K	251.24
308.15 K	253.07
313.15 K	254.91
318.15 K	256.75
323.15 K	258.58
328.15 K	260.43
333.15 K	262.27
338.15 K	264.1
343.15 K	265.94
348.15 K	267.77
353.15 K	269.61
358.15 K	271.46
363.15 K	273.29
368.15 K	275.13
373.15 K	276.98
378.15 K	278.8
383.15 K	280.65
388.15 K	282.47
393.15 K	284.32
398.15 K	286.16
403.15 K	287.99
408.15 K	289.83
413.15 K	291.68
418.15 K	293.51
423.15 K	295.35

CCCCCCCCCCCCCCBr [1-tetradecyl bromide]
Settings	mass density, [2] [kg/m3]	molar heat capacity at constant pressure, [1] [J/K/mol]	speed of sound, [2] [m/s]
298.15 K	1012.2	450.84	1277.2
303.15 K	1008.1	454.08	1260.6
308.15 K	1003.9	457.3	1244.1
313.15 K	999.8	460.54	1227.9
318.15 K	995.7	463.79	1211.9
323.15 K	991.6	467.03	1196
328.15 K	987.4	470.27	1180.4
333.15 K	983.3	473.52	1164.9
338.15 K	979.1	476.73	1149.6
343.15 K	974.9	479.98	1134.5
348.15 K	970.8	483.22	1119.5
353.15 K	966.6	486.47	1104.6
358.15 K	962.4	489.71	1089.9
363.15 K	958.2	492.93	1075.3
368.15 K	954	496.17	1060.9
373.15 K	949.8	499.42	1046.5
378.15 K	945.6	502.66	1032.3
383.15 K	941.3	505.9	1018.2
388.15 K	937.1	509.15	1004.2
393.15 K	932.9	512.37	990.2
398.15 K	928.6	515.61	976.4
403.15 K	924.4	518.85	962.6
408.15 K	920.1	522.1	948.9
413.15 K	915.9	525.34	935.3
418.15 K	911.6	528.56	921.7
423.15 K	907.4	531.8	908.1

From the NIST ThermoML archive (doi:10.1007/s10765-016-2064-y)
